In data set [1] the target is T1, TrkB (Rattus norvegicus, UniProt Q63604).
T1 construct: endogenous in cells; host or cells: primary cortical neurons from E17 rat embryos
Put plainly: TrkB activation in primary cortical neurons (immunoblotting). Type of data set: cell-based. The settings on record: 500 nM, 15 min. As for the experimental part:
Primary cortical cultures from E17 rat embryos were treated with 500 nM of various synthetic flavone derivatives for 15 min. The cell lysates (20 μg) were analyzed by the immunoblotting.
Rat primary neurons were treated with 500 nM various indicated compounds from 15 min. The neuronal lysates ([…]) were analyzed with various antibodies.
500 nM of different synthetic compounds were added to DIV 7 neurons for 15 min. The cell lysates were analyzed by immunoblotting with indicated p-Akt 473 antibodies.
Replacing the 3′-dimethylamino group or 4′-morpholino group was tested for TrkB agonistic activity. To compare the TrkB activation by these compounds, primary cortical cultures were prepared and treated them with 500 nM of various compounds for 15 min and collected the cell lysates. […] The p-Akt ELISA analysis results were similar to the TrkB activation pattern (FIG. 2B, lower panel).

Data set [2] is described as follows: In vivo pharmacokinetic studies in mice. Also on record: species or system mouse. The settings on record: mice. As for the experimental part: For compound a, the standard dosage of 1 mg/kg via i.v. injection and 5 mg/kg for P.O. route was employed. […] Presumably, the dosage is too low for the in vivo PK assay. Thus, the doses of the tested compound o were increased. […] Moreover, the bioavailability is around 2% for compound o at a 10 mg/kg dosage.
Twenty to thirty grams mice within the age of 6-8 weeks old were administrated with the indicated compounds i. v. or orally. At different time points (3, 10, 30, 60, 120, 240, 360 and 480 min), blood aliquots (300-400 μl) were collected in tubes coated with lithium heparin, mixed gently, then kept on ice and centrifuged at 2500×g for 15 min at 4° C., within 1 h of collection. The plasma was then harvested and kept frozen at −20° C. until further processing. For each time point, 3 mice/group were employed. The plasma samples were analyzed by HPLC.

Data set [3] has as its target T2, TrkB (Mus musculus, UniProt P15209).
T2 construct: from tissue; host or cells: mouse brain (hippocampus, cortex), C57BL/6
Put plainly: TrkB phosphorylation in mouse brain after oral administration (immunoblotting, immunohistochemistry). The format is in vivo. To be noted: 1 mg/kg oral, hippocampus, at 4 h. As for the experimental part: One mg/kg of various indicated compounds were orally administrated into C57 BL/6J mice and TrkB phosphorylation and its downstream signaling cascades including Akt and MAPK in the hippocampus of mouse brain were analyzed by immunoblotting at 4 h. […] The downstream p-Akt and p-MAPK activity coupled to the TrkB activation patterns.
Time course assay with 4′-dimethylamino-7,8-imidazole flavone. One mg/kg of compound (i) and compound (m) were orally administrated into C57 BL/6J mice and TrkB phosphorylation and its downstream signaling cascades including Akt in mouse brain were analyzed by immunoblotting at various time points. TrkB activation by compound m peaked at 4 h, whereas the maximal TrkB activation by compound i in mouse brain occurred at 1-2 h. Arrows indicate the p-TrkB in mature glycosylated or unglycosylated forms (top panels). The downstream Akt activation pattern tightly correlated with the upstream TrkB activation.
(§1) Male C57BL/6 mice aged of two months were administrated orally with 4′-DMA-7,8-DHF derivatives at a single dose of 1 mg/kg for 4 h. The control mice were injected with saline. The mice were sacrificed and brains were homogenated and ultracentrafuged. The supernatant (40 μg) was employed for SDS-PAGE and immunoblotting analysis with indicated antibodies, respectively. Male C57BL/6 mice aged of two months were administrated orally with compound (i) or (m) at the dose of 5 mg/kg/day each and compound o or p at the dose of 2.5 mg/kg/day each for 21 days. BrdU (100 mg/kg) was i. p. injected two hours before the TrkB agonist treated animals were sacrificed and the hippocampal section lysates were analyzed by immunoblotting with p-TrkB and total TrkB antibodies, p-AKT ELISA.
Brain tissues were fixed in 4% paraformaldehyde overnight followed by paraffin embedding. Sections of 6 μm were cut. For immunohistochemical staining, brain sections were deparaffinized in xylene and rehydrated in graded alcohols. Endogenous peroxidase activity was blocked by 3% hydrogen peroxide for 5 min and all slides were boiled in 10 mM sodium citrate buffer (pH 6.0) for 10 min. Phosphorylated TrkB 816 and TrkB were detected using specific antibodies. Paraffin section were deparaffinized in xylene and rehydrated gradient ethanol solution. Samples were boiled in 10 mM sodium citrate buffer for 20 min for antigen retrieval purpose. Brain sections were incubated with anti-TrkB (BD Biosciences, San Jose, Calif.) 1:50, p-TrkB 1:300 dilution. Secondary antibody was applied using anti-rabbit-Alexa 594 (red), anti-mouse-fluorescein isothiocyanate (FITC) (green). DAPI (blue) was used for nuclear staining.

The test system of another data set is Akt. The data set is described as follows: Downstream Akt activation in mouse brain (p-Akt immunoblotting, p-Akt 473 ELISA). Type of data set: in vivo. The settings on record: 1 mg/kg oral, at 4 h. As for the experimental part:
PathScan Phospho-Akt1 (Ser473) Sandwich ELISA kit was purchased from Cell Signaling (Cat. #7160). 100 μl sample in sample diluent (supplied in the kit) was added to each well and incubated overnight at 4° C. After 4× wash with 200 ul wash buffer (supplied in the kit), 100 ul/well detection antibody was added and incubated for 1 hour at 37° C. After 4× wash, 100 μl of HRP-linked secondary antibody (supplied in the kit) was added and incubated for 30 minutes at 37° C. After a final wash, 100 μl of TMB substrate was added to each well and incubated for 10 minutes at 37° C. The reaction was stopped by adding 100 μl/well stop solution. Record the values of each well using microplate reader at 450 nm and 650 nm. The optical density was determined by the subtraction of the reading at 650 nm from the reading s at 450 nm.
as §1

The test system of the next data set is HepG2 cells. The data set is described as follows: In vitro cytotoxicity assay with HepG2 cells. Type of data set: cell-based. To be noted: micronucleus and comet assays. As to the method:
HepG2 cells were treated with various concentrations of flavonoids for 24 h. The drug-treated cells were subjected to trypan blue exclusive assay. Data are presented as mean±SEM. (n=3, ***P<0.0001 vs vehicle).
In vitro and in vivo ADMET (ADME plus toxicity) of certain compounds were examined. […] Micronuclei formation is an important endpoint in genotoxicity study. […] Next, a Comet assay was performed with 100 μM drug-treated HepG2 cells. As a positive control, etoposide, a topoisomerase inhibitor, which causes DNA strand breaks was used.

Structures are written as SMILES. Entries after “also recorded” stand apart in the source; their conditions may differ.

T2 sequence (P15209 32-821): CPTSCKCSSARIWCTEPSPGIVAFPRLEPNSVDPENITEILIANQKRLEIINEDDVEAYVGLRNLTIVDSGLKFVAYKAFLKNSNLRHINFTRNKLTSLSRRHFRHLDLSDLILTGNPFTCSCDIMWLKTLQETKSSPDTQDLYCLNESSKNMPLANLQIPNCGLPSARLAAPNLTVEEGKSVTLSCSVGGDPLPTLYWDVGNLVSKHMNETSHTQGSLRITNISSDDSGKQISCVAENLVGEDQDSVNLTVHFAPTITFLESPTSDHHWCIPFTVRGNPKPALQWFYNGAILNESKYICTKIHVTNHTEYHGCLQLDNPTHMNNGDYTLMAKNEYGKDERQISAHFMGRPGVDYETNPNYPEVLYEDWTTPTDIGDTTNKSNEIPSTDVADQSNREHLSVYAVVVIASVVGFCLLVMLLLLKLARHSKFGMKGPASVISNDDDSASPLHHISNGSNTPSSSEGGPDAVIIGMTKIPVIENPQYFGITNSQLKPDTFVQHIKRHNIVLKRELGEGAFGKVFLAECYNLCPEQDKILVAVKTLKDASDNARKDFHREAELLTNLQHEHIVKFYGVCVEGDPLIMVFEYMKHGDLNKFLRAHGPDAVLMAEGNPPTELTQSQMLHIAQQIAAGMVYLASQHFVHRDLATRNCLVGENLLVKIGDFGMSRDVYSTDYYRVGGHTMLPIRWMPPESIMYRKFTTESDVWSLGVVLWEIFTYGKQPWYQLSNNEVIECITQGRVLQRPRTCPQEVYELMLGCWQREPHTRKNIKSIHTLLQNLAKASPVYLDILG
T1 sequence (Q63604 32-821): as the sequence (P15209 32-821) above, with T3M, S9T, A10T, V32I, R63K, S84G, M153T, L185I, S394T, S770N counted along it

Turning to `CN(C)c1cccc(-c2cc(=O)c3ccc(O)c(O)c3o2)c1` [3′-dimethylamino-7,8-DHF], the “TrkB activation (p-TrkB immunoblotting)” value on TrkB [1] is recorded as “comparable activity as compound a”.

As to `O=c1cc(-c2ccc(N3CCOCC3)cc2)oc2c(O)c(O)ccc12` [4′-morpholino-7,8-DHF], on TrkB [1], the “TrkB activation (p-TrkB immunoblotting)” value is on record as “comparable activity as compound a”.

As to `CN(C)c1ccc(-c2cc(=O)c3ccc(O)c(O)c3o2)cc1` [compound a, 4′-DMA-7,8-DHF, reference compound], in data set [2] (1 mg/kg i.v.), the AUClast entry is “about 5930 min*ng/ml” and the “in vivo half-life, t1/2” value was “around 9 min”. In addition, the bioavailability result in data set [2] (5 mg/kg P.O.) is recorded as “not measurable”. The “TrkB activation in mouse brain” value on TrkB [3] was “activated the TrkB receptor; also recorded: strongest TrkB stimulatory effect”. Further, the “downstream p-Akt and p-MAPK signalings” value in the data set with Akt was “strongly activated”.

On to `O=c1cc(-c2ccc(N3CCCC3)cc2)oc2c1ccc1nc[nH]c12` [compound n, 8-(4′-(pyrrolidino-)phenyl)chromeno[7,8-d]imidazol-6(1H)-one], for which the “cytotoxicity or genotoxicity (overall conclusion)” value in the data set with HepG2 cells is reported as “negligible cytotoxicity or genotoxicity”.

Values taken from patent US10596145B2, “Heterocyclic flavone derivatives, compositions, and methods related thereto” (Emory University, priority 2012, dated 2020).
